Measured values reported in ChEMBL document CHEMBL5154810, “Development of Potent Immune Modulators Targeting Stimulator of Interferon Genes Receptor” (J Med Chem, 2022).
Activity calls are given as the source filed them. The calls are words filed in the database; no cut-off is given here.

Legend:
[1] = Toxicity in BALB/c syngenic mouse bearing CT26 cells assessed as effect on body weight at 0.015 to 1.5 mg/kg, iv measured every 2 to 3 days for 17 days; format: organism-based; details: in vivo, 408 h, dose 0.015-1.5 mg/kg, time 17 day
[2] = Activation of IRF-mediated immune response in human THP1-Dual KO-STING cells co-expressing ISRE reporter assessed as normalized luciferase gene expression by measuring relative luciferase units at 50 uM incubated for 24 hrs by QUANTI Luc based microplate reader method; format: functional
[3] = target: T1, Stimulator of interferon genes protein (Homo sapiens, UniProt Q86WV6); assay: Binding affinity to recombinant human His-tagged STING by measuring fluorescent signals in the presence of d2 labelled STING wild type ligand by HTRF based microplate reader analysis
T1 sequence (Q86WV6 whole entry): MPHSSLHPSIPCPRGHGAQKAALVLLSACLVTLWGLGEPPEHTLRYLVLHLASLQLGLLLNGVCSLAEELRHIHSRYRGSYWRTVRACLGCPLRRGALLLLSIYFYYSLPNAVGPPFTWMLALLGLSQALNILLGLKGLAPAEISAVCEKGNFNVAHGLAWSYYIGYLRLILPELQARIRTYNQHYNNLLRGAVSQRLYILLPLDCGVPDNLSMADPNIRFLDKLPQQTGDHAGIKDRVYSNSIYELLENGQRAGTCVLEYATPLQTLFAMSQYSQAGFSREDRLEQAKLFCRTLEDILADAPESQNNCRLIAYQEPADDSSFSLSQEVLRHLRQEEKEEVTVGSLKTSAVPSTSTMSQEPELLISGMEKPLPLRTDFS

[4] = target: T2, Stimulator of interferon genes protein (Mus musculus) (UniProt Q3TBT3); assay: Binding affinity to STING in mouse RAW264.7 assessed as thermal stabilization at 48 to 55 degC at 100 nM incubated for 4 hrs by western blotting based CETSA assay; format: cell-based; details: filed as activator
T2 sequence (whole entry): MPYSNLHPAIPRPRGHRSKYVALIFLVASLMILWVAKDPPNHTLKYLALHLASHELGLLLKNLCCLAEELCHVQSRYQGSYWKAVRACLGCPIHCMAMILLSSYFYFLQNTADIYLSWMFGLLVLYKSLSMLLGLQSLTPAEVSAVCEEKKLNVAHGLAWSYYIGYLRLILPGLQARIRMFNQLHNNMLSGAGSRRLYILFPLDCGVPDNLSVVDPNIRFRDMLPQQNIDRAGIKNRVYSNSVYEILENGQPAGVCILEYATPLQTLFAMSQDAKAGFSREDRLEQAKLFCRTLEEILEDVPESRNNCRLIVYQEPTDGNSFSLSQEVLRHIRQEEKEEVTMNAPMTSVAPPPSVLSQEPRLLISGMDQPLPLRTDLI

Cytochrome P450 1A2 = target: T3, Cytochrome P450 1A2 (Homo sapiens, UniProt P05177); assay: Inhibition of CYP1A2 in human liver microsomes using phenacetin as cocktail probe substrate preincubated for 5 mins followed by NADPH addition and measured after 30 mins by HPLC-MS/MS analysis; format: ADME, Microsome
T3 sequence (P05177 whole entry): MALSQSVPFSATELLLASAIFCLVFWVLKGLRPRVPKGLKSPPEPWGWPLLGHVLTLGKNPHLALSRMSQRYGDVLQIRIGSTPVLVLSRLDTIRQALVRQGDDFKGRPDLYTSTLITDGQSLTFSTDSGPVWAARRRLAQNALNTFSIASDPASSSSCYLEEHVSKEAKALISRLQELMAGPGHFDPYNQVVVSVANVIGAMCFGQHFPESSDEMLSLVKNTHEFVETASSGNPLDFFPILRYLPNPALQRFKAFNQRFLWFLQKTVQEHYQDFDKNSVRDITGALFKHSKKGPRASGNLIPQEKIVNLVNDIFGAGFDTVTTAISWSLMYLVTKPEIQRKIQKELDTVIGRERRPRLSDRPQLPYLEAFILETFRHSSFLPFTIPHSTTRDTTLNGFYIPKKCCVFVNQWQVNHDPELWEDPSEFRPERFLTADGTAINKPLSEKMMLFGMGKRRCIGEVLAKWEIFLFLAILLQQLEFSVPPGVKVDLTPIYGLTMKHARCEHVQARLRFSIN

Cytochrome P450 2C9 = Cytochrome P450 2C9 (Homo sapiens, UniProt P11712); assay: Inhibition of CYP2C9 in human liver microsomes tolbutamide as cocktail probe substrate preincubated for 5 mins followed by NADPH addition and measured after 30 mins by HPLC-MS/MS analysis; format: ADME, Microsome
Sequence of Cytochrome P450 2C9 (P11712 whole entry): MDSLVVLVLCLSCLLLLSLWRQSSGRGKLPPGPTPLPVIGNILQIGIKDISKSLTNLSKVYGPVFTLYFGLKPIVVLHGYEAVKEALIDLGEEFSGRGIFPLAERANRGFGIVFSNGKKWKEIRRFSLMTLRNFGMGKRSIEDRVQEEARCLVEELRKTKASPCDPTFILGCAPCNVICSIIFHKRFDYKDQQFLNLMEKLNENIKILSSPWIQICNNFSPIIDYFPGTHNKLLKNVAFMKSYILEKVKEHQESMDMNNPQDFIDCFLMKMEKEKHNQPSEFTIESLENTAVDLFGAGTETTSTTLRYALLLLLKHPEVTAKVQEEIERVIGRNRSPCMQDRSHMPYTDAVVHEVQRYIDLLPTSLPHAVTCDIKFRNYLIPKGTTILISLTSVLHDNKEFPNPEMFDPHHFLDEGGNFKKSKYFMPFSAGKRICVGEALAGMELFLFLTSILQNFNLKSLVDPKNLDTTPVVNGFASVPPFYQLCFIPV

[5] = target: Voltage-gated inwardly rectifying potassium channel KCNH2 (Homo sapiens, UniProt Q12809); assay: Inhibition of hERG by patch clamp assay; format: toxicity
Sequence of Voltage-gated inwardly rectifying potassium channel KCNH2 (Q12809 whole entry): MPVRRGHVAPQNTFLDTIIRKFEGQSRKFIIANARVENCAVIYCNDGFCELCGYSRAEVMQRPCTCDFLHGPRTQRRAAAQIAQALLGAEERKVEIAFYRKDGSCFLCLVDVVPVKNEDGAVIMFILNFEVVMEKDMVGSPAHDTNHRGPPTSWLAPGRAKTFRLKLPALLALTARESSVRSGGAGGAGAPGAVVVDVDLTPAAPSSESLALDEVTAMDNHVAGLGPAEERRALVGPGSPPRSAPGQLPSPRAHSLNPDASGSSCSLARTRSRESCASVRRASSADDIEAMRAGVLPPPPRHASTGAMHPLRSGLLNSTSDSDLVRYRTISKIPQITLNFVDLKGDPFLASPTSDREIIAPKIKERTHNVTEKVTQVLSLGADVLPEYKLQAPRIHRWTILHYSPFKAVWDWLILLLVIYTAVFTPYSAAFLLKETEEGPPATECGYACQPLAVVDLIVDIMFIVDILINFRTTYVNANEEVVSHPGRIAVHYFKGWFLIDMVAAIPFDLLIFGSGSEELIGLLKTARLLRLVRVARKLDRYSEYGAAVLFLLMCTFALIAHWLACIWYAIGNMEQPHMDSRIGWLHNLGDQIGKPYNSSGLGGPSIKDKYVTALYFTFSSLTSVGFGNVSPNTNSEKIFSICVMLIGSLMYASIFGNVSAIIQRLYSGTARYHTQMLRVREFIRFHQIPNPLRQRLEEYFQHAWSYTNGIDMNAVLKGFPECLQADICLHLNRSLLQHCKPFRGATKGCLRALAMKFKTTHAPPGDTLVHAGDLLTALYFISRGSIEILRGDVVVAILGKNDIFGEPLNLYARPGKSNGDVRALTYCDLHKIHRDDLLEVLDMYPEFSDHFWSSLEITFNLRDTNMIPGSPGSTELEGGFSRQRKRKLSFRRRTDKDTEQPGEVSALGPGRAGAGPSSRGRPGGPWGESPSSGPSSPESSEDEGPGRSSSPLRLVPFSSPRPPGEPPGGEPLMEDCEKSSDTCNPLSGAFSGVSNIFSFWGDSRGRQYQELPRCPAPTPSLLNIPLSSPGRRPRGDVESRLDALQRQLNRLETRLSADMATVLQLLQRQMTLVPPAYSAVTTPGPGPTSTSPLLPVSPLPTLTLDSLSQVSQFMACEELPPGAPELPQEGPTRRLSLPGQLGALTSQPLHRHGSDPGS

[6] = Stability in human liver microsome assessed as parent compound remaining at 1 uM measured after 30 mins in the presence of NADPH by HPLC-MS/MS analysis; format: ADME; details: liver microsomes, read-out: Stability
THP-1 [7] = assay: Upregulation of IFITM1 in human THP-1 cells at 100 nM measured after 6 to 18 hrs by RT-PCR analysis; format: functional, cell-based; details: time 6-18 hrs
THP-1 [8] = assay: Upregulation of IRF7 in human THP-1 cells at 100 nM measured after 6 to 18 hrs by RT-PCR analysis; format: functional, cell-based; details: time 6-18 hrs
THP-1 [9] = assay: Upregulation of ISG15 in human THP-1 cells at 100 nM measured after 6 to 18 hrs by RT-PCR analysis; format: functional, cell-based; details: time 6-18 hrs
Mus musculus = assay: Upregulation of IL-6 in BALB/c mouse serum at 1.5 mg/kg, iv measured after 4 hrs by ELISA; format: functional, organism-based
[10] = Volume of distribution at steady state in BALB/c mouse at 3 mg/kg, iv by LC-MS/MS analysis; format: ADME, organism-based; details: in vivo, read-out: Vdss
[11] = Clearance in BALB/c mouse at 3 mg/kg, iv by LC-MS/MS analysis; format: ADME, organism-based; details: in vivo, iv, 3 mg/kg
[12] = AUClast in BALB/c mouse at 3 mg/kg, iv by LC-MS/MS analysis; format: ADME, organism-based; parameters: time 0 - last, dose 3 mg/kg, route iv; details: in vivo
[13] = AUCinfinity in BALB/c mouse at 3 mg/kg, iv by LC-MS/MS analysis; format: ADME, organism-based; parameters: time infinity, dose 3 mg/kg, route iv; details: in vivo
[14] = Toxicity in BALB/c mouse xenografted with mouse CT26 cells assessed as effect on body weight at 1.5 mg/kg, iv measured after 8 days; format: organism-based; details: in vivo, 192 h, time 8 day
[15] = target: T1, Stimulator of interferon genes protein; assay: Activation of STING pathway in human THP1-cells assessed as increase in STING phosphorylation at 2 nM incubated for 6 hrs by Western blotting analysis; format: cell-based; details: THP-1, filed as activator
[16] = target: T1, Stimulator of interferon genes protein; details: THP1-Dual, filed as activator, dose 50.0 µM, time 24.0 hrs

IC50 [3]: 0.0623 nM
Activity [4]: Active
IC50 (Cytochrome P450 1A2): > 100 µM
IC50 (Cytochrome P450 2C9): > 100 µM
remaining at 0.5 h, 1 µM [6]: 11.2%
Vd [10]: 17.7 L/kg
CL [11]: 35.3 mL/min/kg
AUC(0-t) [12]: 4200 ng·h/mL
AUC [13]: 4780 ng·h/mL
Activity [15]: Active
RLU [16]: 102
Structure (SMILES): CCn1nc(C)cc1C(=O)Nc1nc2cc(C(N)=O)cc(OC)c2n1C/C=C/Cn1c(NC(=O)c2cc(C)nn2CC)nc2cc(C(N)=O)cc(OCCCNC(=O)OC(C)(C)C)c21
Activity [1]: Non-Toxic
RLU [2]: 1.1
IC50 [5]: > 50 µM
Activity (THP-1 [7]): Active
Activity (THP-1 [8]): Active
Activity (THP-1 [9]): Active
Activity (Mus musculus): Active
Activity [14]: Non-Toxic
